Tests used:
[1] = molecular target: human adenosine A2B receptor (Homo sapiens (Human), UniProt P29275); assay: Adenosine A2B Receptor Cyclic AMP GS Assay; assay type: cell-based; conditions: A2B_cAMP_EC50 (nM), HEK-293 cells expressing human A2B, agonist NECA 12 nM
Outline: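 Stably transfected HEK-293 cells were preincubated with compound for 30 min at room temperature, then stimulated with 12 nM NECA for 60 min. cAMP accumulation was read by FRET (665/620 ratio), and EC50 was fitted from percent of control versus log compound concentration.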

[2] = molecular target: Adenosine A2A (Homo sapiens (Human), UniProt P29274); assay: A2A Tag-Lite HTRF assay; assay type: binding; conditions: Tag-Lite Adenosine A2A labeled cells, fluorescent ligand 12.5 nM; read-out: A2A_Ki
Text: Example C. A2A Tag-Lite® HTRF Assay

Sequence of human adenosine A2B receptor (P29275 whole entry): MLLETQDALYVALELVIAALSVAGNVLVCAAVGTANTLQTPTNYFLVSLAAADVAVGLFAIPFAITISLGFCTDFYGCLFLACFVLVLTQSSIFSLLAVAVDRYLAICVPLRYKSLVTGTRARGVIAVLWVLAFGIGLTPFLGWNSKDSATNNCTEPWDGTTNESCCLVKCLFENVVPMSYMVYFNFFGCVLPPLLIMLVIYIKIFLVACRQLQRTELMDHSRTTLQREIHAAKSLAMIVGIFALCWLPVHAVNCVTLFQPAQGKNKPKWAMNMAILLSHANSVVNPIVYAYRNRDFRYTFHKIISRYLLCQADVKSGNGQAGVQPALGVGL
Sequence of Adenosine A2A (P29274 whole entry): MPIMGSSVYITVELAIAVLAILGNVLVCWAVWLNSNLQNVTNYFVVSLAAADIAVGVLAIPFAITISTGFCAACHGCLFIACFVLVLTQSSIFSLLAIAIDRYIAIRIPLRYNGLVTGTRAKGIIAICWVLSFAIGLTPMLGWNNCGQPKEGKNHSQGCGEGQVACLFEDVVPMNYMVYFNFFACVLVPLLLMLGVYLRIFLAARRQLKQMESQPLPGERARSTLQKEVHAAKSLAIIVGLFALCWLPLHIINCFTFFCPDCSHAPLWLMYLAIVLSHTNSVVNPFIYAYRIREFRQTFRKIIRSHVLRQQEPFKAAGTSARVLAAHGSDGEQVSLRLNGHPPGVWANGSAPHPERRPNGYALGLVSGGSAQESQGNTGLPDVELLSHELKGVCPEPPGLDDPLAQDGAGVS

Compound	EC50 [1] [nM]	Ki [2] [nM]
N#Cc1cccc(-c2nc(N)c3nc(Cc4c(F)cccc4CNCC(N)=O)nn3c2-c2ccncn2)c1 [Example 69, 2-((2-((8-amino-6-(3-cyanophenyl)-5-(pyrimidin-4-yl)-[1,2,4]triazolo[1,5-a]pyrazin-2-yl)methyl)-3-fluorobenzyl)amino)acetamide]	< 10	< 10
N#Cc1cccc(-c2nc(N)c3nc(Cc4c(F)cccc4CN4CCNC(=O)C4)nn3c2-c2ccncn2)c1 [Example 70, 3-(8-amino-2-(2-fluoro-6-((3-oxopiperazin-1-yl)methyl)benzyl)-5-(pyrimidin-4-yl)-[1,2,4]triazolo[1,5-a]pyrazin-6-yl)benzonitrile]	10 to 100	< 10
N#Cc1cccc(-c2nc(N)c3nc(Cc4c(F)cccc4CN[C@H]4C[C@@H](C(=O)O)C4)nn3c2-c2ccncn2)c1 [Example 71, (1S,3S)-3-((2-((8-amino-6-(3-cyanophenyl)-5-(pyrimidin-4-yl)-[1,2,4]triazolo[1,5-a]pyrazin-2-yl)methyl)-3-fluorobenzyl)amino)cyclobutane-1-carboxylic Acid]	< 10	< 10
CN1CCC(NCc2cccc(F)c2Cc2nc3c(N)nc(-c4cccc(C#N)c4)c(-c4ccncn4)n3n2)C1=O (stereo not shown) [Example 72, 3-(8-amino-2-(2-fluoro-6-(((1-methyl-2-oxopyrrolidin-3-yl)amino)methyl)benzyl)-5-(pyrimidin-4-yl)-[1,2,4]triazolo[1,5-a]pyrazin-6-yl)benzonitrile]	< 10	< 10
N#Cc1cccc(-c2nc(N)c3nc(Cc4c(F)cccc4CN4CC(C#N)C4)nn3c2-c2ccncn2)c1 [Example 73, 1-(2-((8-amino-6-(3-cyanophenyl)-5-(pyrimidin-4-yl)-[1,2,4]triazolo[1,5-a]pyrazin-2-yl)methyl)-3-fluorobenzyl)azetidine-3-carbonitrile]	< 10	< 10
Cn1ncc(NCc2cccc(F)c2Cc2nc3c(N)nc(-c4cccc(C#N)c4)c(-c4ccncn4)n3n2)n1 [Example 74, 3-(8-amino-2-(2-fluoro-6-(((2-methyl-2H-1,2,3-triazol-4-yl)amino)methyl)benzyl)-5-(pyrimidin-4-yl)-[1,2,4]triazolo[1,5-a]pyrazin-6-yl)benzonitrile]	< 10	< 10
N#Cc1cccc(-c2nc(N)c3nc(Cc4ccccc4CN[C@H]4CCNC4=O)nn3c2-c2ccncn2)c1 [Example 75, (S)-3-(8-amino-2-(2-(((2-oxopyrrolidin-3-yl)amino)methyl)benzyl)-5-(pyrimidin-4-yl)-[1,2,4]triazolo[1,5-a]pyrazin-6-yl)benzonitrile]	< 10	< 10
Cc1ncoc1-c1c(-c2cccc(C#N)c2)nc(N)c2nc(Cc3c(F)cccc3CN3CC[C@@](C)(C(=O)O)C3)nn12 [Example 76, (R)-1-(2-((8-amino-6-(3-cyanophenyl)-5-(4-methyloxazol-5-yl)-[1,2,4]triazolo[1,5-a]pyrazin-2-yl)methyl)-3-fluorobenzyl)-3-methylpyrrolidine-3-carboxylic Acid]	10 to 100	< 10
Cc1ncoc1-c1c(-c2cccc(C#N)c2)nc(N)c2nc(C(N)c3c(F)cccc3F)nn12 (stereo not shown) [Example 77, 3-(8-amino-2-(amino(2,6-difluorophenyl)methyl)-5-(4-methyloxazol-5-yl)-[1,2,4]triazolo[1,5-a]pyrazin-6-yl)benzonitrile]	< 10	< 10
CNC(c1nc2c(N)nc(-c3cccc(C#N)c3)c(-c3ocnc3C)n2n1)c1c(F)cccc1F (stereo not shown) [Example 78, 3-(8-amino-2-((2,6-difluorophenyl)(methylamino)methyl)-5-(4-methyloxazol-5-yl)-[1,2,4]triazolo[1,5-a]pyrazin-6-yl)benzonitrile]	< 10	< 10
Cc1ncoc1-c1c(-c2cccc(C#N)c2)nc(N)c2nc(C(NCCO)c3c(F)cccc3F)nn12 (stereo not shown) [Example 79, 3-(8-amino-2-((2,6-difluorophenyl)((2-hydroxyethyl)amino)methyl)-5-(4-methyloxazol-5-yl)-[1,2,4]triazolo[1,5-a]pyrazin-6-yl)benzonitrile]	< 10	< 10
Cc1ncoc1-c1c(-c2cccc(C#N)c2)nc(N)c2nc(C(N)c3ccccc3F)nn12 (stereo not shown) [Example 80, 3-(8-amino-2-(amino(2-fluorophenyl)methyl)-5-(4-methyloxazol-5-yl)-[1,2,4]triazolo[1,5-a]pyrazin-6-yl)benzonitrile]	< 10	< 10
Cn1nc(-c2c(-c3cccc(C#N)c3)nc(N)c3nc(C(N)c4c(F)cccc4F)nn23)ccc1=O (stereo not shown) [Example 81, 3-(8-amino-2-(amino(2,6-difluorophenyl)methyl)-5-(1-methyl-6-oxo-1,6-dihydropyridazin-3-yl)-[1,2,4]triazolo[1,5-a]pyrazin-6-yl)benzonitrile]	< 10	< 10
N#Cc1cccc(-c2nc(N)c3nc(Cc4ncccc4-c4cnco4)nn3c2-c2ccncn2)c1 [Example 82, 3-(8-amino-2-((3-(oxazol-5-yl)pyridin-2-yl)methyl)-5-(pyrimidin-4-yl)-[1,2,4]triazolo[1,5-a]pyrazin-6-yl)benzonitrile]	< 10	< 10
Cn1cc(-c2cccc(F)c2Cc2nc3c(N)nc(-c4cccc(C#N)c4F)cn3n2)cn1 [Example 83, 3-(8-amino-2-(2-fluoro-6-(1-methyl-1H-pyrazol-4-yl)benzyl)-[1,2,4]triazolo[1,5-a]pyrazin-6-yl)-2-fluorobenzonitrile]	< 10	< 10
CN1CC[C@H](NCc2cccc(F)c2Cc2nc3c(N)nc(-c4cccc(C#N)c4F)cn3n2)C1=O [Example 84, (S)-3-(8-amino-2-(2-fluoro-6-(((1-methyl-2-oxopyrrolidin-3-yl)amino)methyl)benzyl)-[1,2,4]triazolo[1,5-a]pyrazin-6-yl)-2-fluorobenzonitrile]	< 10	< 10
CN1CCC2(CN(Cc3cccc(F)c3Cc3nc4c(N)nc(-c5cccc(C#N)c5F)cn4n3)C2)C1=O [Example 85, 3-(8-amino-2-(2-fluoro-6-((6-methyl-5-oxo-2,6-diazaspiro[3.4]octan-2-yl)methyl)benzyl)-[1,2,4]triazolo[1,5-a]pyrazin-6-yl)-2-fluorobenzonitrile]	10 to 100	< 10
Cc1ncoc1-c1c(-c2cccc(C#N)c2F)nc(N)c2nc(Cc3ccccn3)nn12 [Example 86, 3-(8-amino-5-(4-methyloxazol-5-yl)-2-(pyridin-2-ylmethyl)-[1,2,4]triazolo[1,5-a]pyrazin-6-yl)-2-fluorobenzonitrile]	< 10	< 10
Cc1nc(C(O)C(F)F)c(-c2c(-c3cccc(C#N)c3F)nc(N)c3nc(Cc4ccccn4)nn23)o1 (stereo not shown) [Example 87, 3-(8-amino-5-(4-(2,2-difluoro-1-hydroxyethyl)-2-methyloxazol-5-yl)-2-(pyridin-2-ylmethyl)-[1,2,4]triazolo[1,5-a]pyrazin-6-yl)-2-fluorobenzonitrile]	10 to 100	< 10
Cc1nc(C(O)C(F)(F)F)c(-c2c(-c3cccc(C#N)c3F)nc(N)c3nc(Cc4ccccn4)nn23)o1 (stereo not shown) [Example 88, 3-(8-amino-5-(2-methyl-4-(2,2,2-trifluoro-1-hydroxyethyl)oxazol-5-yl)-2-(pyridin-2-ylmethyl)-[1,2,4]triazolo[1,5-a]pyrazin-6-yl)-2-fluorobenzonitrile]	10 to 100	< 10
Cn1cc(-c2c(-c3cccc(C#N)c3F)nc(N)c3nc(Cc4ccccn4)nn23)ccc1=O [Example 89, 3-(8-amino-5-(1-methyl-6-oxo-1,6-dihydropyridin-3-yl)-2-(pyridin-2-ylmethyl)-[1,2,4]triazolo[1,5-a]pyrazin-6-yl)-2-fluorobenzonitrile]	10 to 100	< 10
Cn1cnc(S(=O)(=O)N2CCCC2Cc2nc3c(N)nc(-c4cccc(C#N)c4F)cn3n2)c1 (stereo not shown) [Example 90, 3-(8-amino-2-((1-((1-methyl-1H-imidazol-4-yl)sulfonyl)pyrrolidin-2-yl)methyl)-[1,2,4]triazolo[1,5-a]pyrazin-6-yl)-2-fluorobenzonitrile]	100 to 1000	< 10
CC(=O)N1CCC(Cc2cccc(F)c2Cc2nc3c(N)nc(-c4cccc(C#N)c4F)cn3n2)CC1 [Example 91, 3-(2-(2-((1-acetylpiperidin-4-yl)methyl)-6-fluorobenzyl)-8-amino-[1,2,4]triazolo[1,5-a]pyrazin-6-yl)-2-fluorobenzonitrile]	10 to 100	< 10
N#Cc1cccc(-c2nc(N)c3cc(Cc4c[nH]c5cccnc45)nn3c2-c2ccncn2)c1 [Example 96, 3-(2-((1H-pyrrolo[3,2-b]pyridin-3-yl)methyl)-4-amino-7-(pyrimidin-4-yl)pyrazolo[1,5-a]pyrazin-6-yl)benzonitrile]	10 to 100	< 10
Cn1cc(Cn2cc(-c3cccc(F)c3Cc3nc4c(N)nc(-c5cccc(C#N)c5F)cn4n3)cn2)cn1 [Example 99, 3-(8-amino-2-(2-fluoro-6-(1-((1-methyl-1H-pyrazol-4-yl)methyl)-1H-pyrazol-4-yl)benzyl)-[1,2,4]triazolo[1,5-a]pyrazin-6-yl)-2-fluorobenzonitrile]	10 to 100	< 10
N#Cc1cccc(-c2cn3nc(Cc4c(F)cccc4-c4cnn(Cc5ccccn5)c4)nc3c(N)n2)c1F [Example 107, 3-(8-amino-2-(2-fluoro-6-(1-(pyridin-2-ylmethyl)-1H-pyrazol-4-yl)benzyl)-[1,2,4]triazolo[1,5-a]pyrazin-6-yl)-2-fluorobenzonitrile]	10 to 100	< 10

From patent US11161850B2, “Fused pyrazine derivatives as A2A / A2B inhibitors” (Incyte Corporation, priority 2018, dated 2021)
